Source: patent US20020052361A1, “Pharmaceutical compositions and method for the treatment of hypertension” (priority 1999, published 2002)

Columns and labels:
Assay type in all cases: in vivo, Sprague-Dawley rats
chronically hypoxic rats [1] = experiment: Haemodynamic tests: pulmonary artery pressure in rats kept 14 days under normoxic or hypoxic conditions; conditions: for PAP (pulmonary artery pressure): rats, 40 mg/kg/day for 14 days via i.p. osmotic mini-pump, mean ± SD
Procedure: (§1) The test substance employed was (3S,2R′)-3-[1-(2′-(carboxy-4′-phenylbutyl)cyclopentane-1-carbonylamino]-2,3,4,5-tetrahydro-2-oxo-1H-1-benzazepine-1-acetic acid, which is representative of the substances of formula I which can be used in the invention. The dose of the substance administered was 40 mg/kg per day (sufficient to suppress the pressure feedback on big endothelin).
(§2) The test animals used were Sprague-Dawley rats (260 to 310 g; n=6 to 10 per test group). In order to produce pulmonary hypertension, the animals were exposed to […] hypoxic conditions in a pressure chamber. For comparison, one control group was kept under normal air and another control group under hypoxic conditions.
(§3) The animals were treated with the active substance or a vehicle by means of osmotic mini-pumps. The osmotic mini-pumps had been implanted intraperitoneally in the animals before they were kept in a pressure chamber 24 h later for a period of two weeks. There the animals were kept at normal pressure either under hypoxic conditions (10% O2) or in normal air. After two weeks the animals were prepared for the haemodynamic tests and the measurements were carried out.
The animals were anaesthetised, then a ready-made cannula was inserted into the pulmonary artery in a conventional manner via the right jugular vein, atrium and ventricle. A catheter was inserted into the left jugular vein in order to allow intravenous administration of active substances. The left carotid artery was also fitted with a cannula for the purpose of measuring systemic blood pressure. Once the animals were conscious, pulmonary artery pressure (PAP) was recorded. The rats were then exposed to hypoxic conditions (10% O2) again for 10 minutes in a mini-chamber and the increase in pulmonary artery pressure was measured and also recorded. The effects of the test substance on PAP under normotoxic and hypoxic conditions are presented in Table 1 in comparison with the control tests. The given data are means±standard deviations and were statistically analysed by means of ANOVA.

chronically hypoxic rats [2] = experiment: Measurement of the antihypertrophic effect: right and left ventricular weights; conditions: for Rt/LtHWt (ratio of right to left ventricular weight) / RtHWt (right ventricular weight) / RtHWt/BW (ratio of right ventricular weight to body weight): rats, 40 mg/kg/day for 14 days, mean ± SD
Procedure: as §1, §2, §3
After completion of the haemodynamic tests, the animals were sacrificed and their hearts were dissected out. The weights of the right and left ventricles were determined and calculated in relation to bodyweight. The effects of the test substance on the heart weights under normotoxic and hypoxic conditions are presented in Table 1 in comparison with the control tests. The given data are means±standard deviations and were statistically analysed by means of ANOVA.

chronically hypoxic rats [3] = experiment: Effect on pulmonary artery remodelling: muscularisation of distal pulmonary vessels (histology, van Gieson staining)
Procedure: as §1, §2, §3
After the rats had been sacrificed, the lungs as well as the hearts were isolated. The lungs underwent histological examination, i.e. the degree of muscularisation of the distal pulmonary vessels was determined after “van Gieson” staining, by microscopy at 400× magnification. The effects of the test substance on pulmonary artery remodelling (i.e. on muscularisation of the distal pulmonary vessels) during two weeks' hypoxia are presented in Table 2 in comparison with the hypoxic control tests. The given data are means±standard deviations and were statistically analysed by means of ANOVA.

chronically hypoxic rats [4] = experiment: Haemodynamic tests: systemic blood pressure via carotid artery cannula; conditions: 40 mg/kg per day, result in words
Procedure: as §1, §2
The animals were treated with the active substance or a vehicle by means of osmotic mini-pumps. […]
The animals were anaesthetised, then a ready-made cannula was inserted into the pulmonary artery in a conventional manner via the right jugular vein, atrium and ventricle. […] Once the animals were conscious, pulmonary artery pressure (PAP) was recorded. The rats were then exposed to hypoxic conditions (10% O2) again for 10 minutes in a mini-chamber and the increase in pulmonary artery pressure was measured and also recorded. […] The given data are means±standard deviations and were statistically analysed by means of ANOVA.

[5] = hypoxic rats, 40 mg/kg per day, result in words
[6] = rats, 14 days' hypoxia, 40 mg/kg/day for 14 days, mean ± SD, n = 8

## O=C(O)CN1C(=O)[C@@H](NC(=O)C2(C[C@@H](CCc3ccccc3)C(=O)O)CCCC2)CCc2ccccc21 [Test substance]
Chronically hypoxic rats [1]; [5]
  Effect on pulmonary artery pressure (PAP) in comparison with hypoxic control animals: statistically significant decrease
Chronically hypoxic rats [1]; 14-day hypoxia (10% O2), n=9
  PAP (pulmonary artery pressure): 33.2 ± 1.2 mmHg
Chronically hypoxic rats [1]; 14-day normoxia, n = 8
  PAP (pulmonary artery pressure): 22.2 ± 1 mmHg
Chronically hypoxic rats [2]; [5]
  Effect on ratio between right and left ventricular weights: tendency towards a reduction
  Effect on ratio between right heart weight and bodyweight: tendency towards a reduction
  Effect on right heart weight (antihypertrophic effect) in comparison with hypoxic control tests: statistically significant reduction
Chronically hypoxic rats [2]; 14-day hypoxia (10% O2), n=9
  Rt/LtHWt (ratio of right to left ventricular weight): 0.40 ± 0.02 mg/mg
  RtHWt (right ventricular weight): 242 ± 6.4 mg
  RtHWt/BW (ratio of right ventricular weight to body weight): 0.87 ± 0.03 mg/g
Chronically hypoxic rats [2]; 14-day normoxia, n = 8
  Rt/LtHWt (ratio of right to left ventricular weight): 0.25 ± 0.01 mg/mg
  RtHWt (right ventricular weight): 171 ± 10 mg
  RtHWt/BW (ratio of right ventricular weight to body weight): 0.56 ± 0.03 mg/g
Chronically hypoxic rats [3]; [5]
  Effect on muscularisation of the distal pulmonary vessels: statistically significantly reduced
Chronically hypoxic rats [3]; [6]
  Muscularised distal pulmonary vessels: 52 ± 5 %
  Non-muscularised distal pulmonary vessels: 9 ± 3%
  Partly muscularised distal pulmonary vessels: 39 ± 4 %
Chronically hypoxic rats [4]
  Effect on normal systemic blood pressure (hypotensive properties): unaffected
